Test results as given in patent US7834173B2, “Esters of hyaluronic acid with rhein, process for their preparation and compositions comprising the same” (Laboratoire Medidom S.A., priority 2004, dated 2010).

Assay: Viscosity / syringeability of 1% w/v solutions (VISCOMATE VM-10A)
Assay type: physicochemical
Settings: 1% w/v in phosphate-buffered saline solution pH 7.4, 20±0.2° C., no stirring
Procedure: The syringeability of the HA-Re compound of the invention was analysed in comparison to that of hyaluronic acid both with a high and a low molecular weight.
In particular, the following three samples were prepared: • a) a 1% w/v solution of high molecular weight hyaluronic acid (average molecular weight approximately 1'200'000) in phosphate-buffered saline solution, pH 7.4 • b) a 1% w/v solution of low molecular weight hyaluronic acid (average molecular weight approximately 600'000) in phosphate-buffered saline solution, pH 7.4 • c) a 1% w/v solution of the HA-Re compound of the invention in phosphate-buffered saline solution, pH 7.4.
The viscosity of the samples was then measured using a VISCOMATE MODEL VM-10A (glass vial: 3 ml; in the absence of stirring conditions; temperature 20±0.2° C.), with the following values being obtained: • a) η=78.4 mPa·s • b) η=64.8 mPa·s • c) η=47.9 mPa·s

Substance: low molecular weight hyaluronic acid
- viscosity η: 64.8 mPa·s
